Data: patent US20100009934A1, “BETA ADRENERGIC RECEPTOR AGONISTS FOR THE TREATMENT OF B-CELL PROLIFERATIVE DISORDERS” (CombinatoRx, Incorporated, priority 2008, published 2010)
Several values for one entry are separate records, joined by “and”; a condition that tells them apart may be missing. Identical values can stand only once.

Tested on: Human Multiple Myeloma Cells (ANBL-6)
Assay: Anti-proliferation assay (ATPLite, 72 hours), ANBL-6
Conditions: for Antiproliferative Activity: Salmeterol 0.00000506 μM

Question: With `OCc1cc(C(O)CNCCCCCCOCCCCc2ccccc2)ccc1O` (stereo not drawn) [salmeterol] as the molecule, how does the “Antiproliferative Activity” value (DEX μM r7-r15: 2.03, 0.675, 0.225, 0.075, 0.025, 0.00834, 0.00278, 0.00093, 0) read?
Answer: 18.6

Question: What about the “Antiproliferative Activity” value (LEN μM r7-r15: 4.04, 2.02, 1.01, 0.505, 0.253, 0.126, 0.0632, 0.0316, 0) of the same molecule?
Answer: 34.7

Question: What about the “percent inhibition of cell proliferation” value (Trequinsin 0 μM (single agent), SAL (μM): 0.0203, 0.0101, 0.00506, 0.00253, 0.00127, 0.000633, 0.000316, 0.000158) of the same molecule?
Answer: 54% and 55.7% and 58.4% and 54.8% and 50.7% and 58% and 54.7% and 55%
